Experimental data as given in paper PMC7714403 (JCI Insight, 2020).
Read-outs that look alike come from different tables or passages of the source.

Key:
Assay in all cases: KiNativ, MOLM13 live cells
Format in all cases: cell-based
AurB = AurB (Homo sapiens, UniProt Q96GD4); settings: MOLM-13; 100 nM, 2 hours; Lys1; read-out: Inhibition vs DMSO
Method: (§1) Samples were analyzed by KiNativ in situ kinase profiling by ActivX Biosciences.

NEK9 = target: T1, NEK9 (Homo sapiens, UniProt Q8TD19); settings: MOLM-13, 2 h, 100 nM
T1 sequence (Q8TD19 1-979): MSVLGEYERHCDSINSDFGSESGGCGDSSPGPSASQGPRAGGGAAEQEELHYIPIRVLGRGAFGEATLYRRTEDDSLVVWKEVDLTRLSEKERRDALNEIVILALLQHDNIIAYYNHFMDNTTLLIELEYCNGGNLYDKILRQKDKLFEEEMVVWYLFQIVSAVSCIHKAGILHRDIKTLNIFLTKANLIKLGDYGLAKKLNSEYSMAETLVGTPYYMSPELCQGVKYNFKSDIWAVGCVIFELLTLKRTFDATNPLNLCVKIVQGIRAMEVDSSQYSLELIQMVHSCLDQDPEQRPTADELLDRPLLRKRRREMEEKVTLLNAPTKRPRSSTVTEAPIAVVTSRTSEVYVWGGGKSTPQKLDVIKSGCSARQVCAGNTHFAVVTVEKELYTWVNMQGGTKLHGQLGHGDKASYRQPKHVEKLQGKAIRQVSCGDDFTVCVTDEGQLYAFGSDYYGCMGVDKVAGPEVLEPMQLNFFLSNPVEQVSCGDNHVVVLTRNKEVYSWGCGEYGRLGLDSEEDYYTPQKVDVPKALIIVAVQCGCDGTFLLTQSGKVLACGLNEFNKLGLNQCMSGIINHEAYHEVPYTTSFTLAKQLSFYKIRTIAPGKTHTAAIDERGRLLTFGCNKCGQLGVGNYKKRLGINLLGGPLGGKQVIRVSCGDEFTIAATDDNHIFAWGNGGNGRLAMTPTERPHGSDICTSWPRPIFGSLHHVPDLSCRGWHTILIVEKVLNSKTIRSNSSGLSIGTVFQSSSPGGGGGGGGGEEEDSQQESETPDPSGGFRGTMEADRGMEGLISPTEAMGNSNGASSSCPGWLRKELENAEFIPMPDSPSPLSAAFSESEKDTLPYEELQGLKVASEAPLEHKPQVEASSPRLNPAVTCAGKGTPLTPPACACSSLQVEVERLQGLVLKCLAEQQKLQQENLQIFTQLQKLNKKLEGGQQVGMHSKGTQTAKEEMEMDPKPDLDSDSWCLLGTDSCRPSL
Method: as §1

MAP2K7 = MAP2K7 (Homo sapiens, UniProt O14733); settings: 100 nM, 2 hours; Lys2
Method: as §1

BARK1 = BARK1 (Homo sapiens, UniProt P25098); settings: MOLM-13; 100 nM, 2 hours; Lys2; read-out: Inhibition vs DMSO
Method: as §1

MLK4 = MLK4 (Homo sapiens, UniProt Q5TCX8); settings: MOLM-13; 100 nM, 2 hours; Lys2; read-out: Inhibition vs DMSO
Method: as §1

MAP2K3 = target: T2, MAP2K3 (Homo sapiens, UniProt P46734); settings: MOLM-13, 2 h, 100 nM
T2 sequence (P46734 1-347): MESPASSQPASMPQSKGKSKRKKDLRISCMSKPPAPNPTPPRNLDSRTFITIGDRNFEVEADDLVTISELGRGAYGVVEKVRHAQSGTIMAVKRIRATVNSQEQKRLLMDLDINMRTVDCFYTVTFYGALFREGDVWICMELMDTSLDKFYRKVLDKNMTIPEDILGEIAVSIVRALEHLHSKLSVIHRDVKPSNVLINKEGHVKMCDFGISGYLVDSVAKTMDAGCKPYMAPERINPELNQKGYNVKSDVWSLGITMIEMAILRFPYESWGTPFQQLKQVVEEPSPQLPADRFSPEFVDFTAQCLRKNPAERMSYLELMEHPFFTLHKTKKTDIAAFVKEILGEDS
Method: as §1

GSK3B = GSK3B (Homo sapiens, UniProt P49841); settings: MOLM-13; 100 nM, 2 hours; Lys2; read-out: Inhibition vs DMSO
Method: as §1

PCTAIRE1 = PCTAIRE1 (Homo sapiens, UniProt Q00536); settings: MOLM-13; 100 nM, 2 hours; Lys1; read-out: Inhibition vs DMSO
Method: as §1

MAP3K2 = MAP3K2 (Homo sapiens, UniProt Q9Y2U5); settings: MOLM-13; 100 nM, 2 hours; Lys1; read-out: Inhibition vs DMSO
Method: as §1

MAP4K3 = MAP4K3 (Homo sapiens, UniProt Q8IVH8); settings: 100 nM, 2 hours; Lys2
Method: as §1

CDK4 = CDK4 (Homo sapiens, UniProt P11802); settings: MOLM-13; 100 nM, 2 hours; Lys2; read-out: Inhibition vs DMSO
Method: as §1

IRAK1 = IRAK1 (Homo sapiens, UniProt P51617); settings: MOLM-13; 100 nM, 2 hours; Lys2; read-out: Inhibition vs DMSO
Method: as §1

FER = FER (Homo sapiens, UniProt P16591); settings: MOLM-13, 2 h, 100 nM
Method: as §1

RSK2 domain1 = target: T3, RSK2 domain1 (Homo sapiens, UniProt P51812); settings: MOLM-13, 2 h, 100 nM
T3 construct: RSK2 domain1
Method: as §1

PKN1 = PKN1 (Homo sapiens, UniProt Q16512); settings: MOLM-13; 100 nM, 2 hours; Lys2; read-out: Inhibition vs DMSO
Method: as §1

CaMK1d = CaMK1d (Homo sapiens, UniProt Q8IU85); settings: MOLM-13; 100 nM, 2 hours; Lys1; read-out: Inhibition vs DMSO
Method: as §1

PI4KB = PI4KB (Homo sapiens, UniProt Q9UBF8); settings: MOLM-13, 2 h, 100 nM, ATP, read-out: Inhibition vs DMSO
Method: as §1

DGKH = DGKH (Homo sapiens, UniProt Q86XP1); settings: MOLM-13; 100 nM, 2 hours; ATP; read-out: Inhibition vs DMSO
Method: as §1

TBK1 = TBK1 (Homo sapiens, UniProt Q9UHD2); settings: MOLM-13; 100 nM, 2 hours; Lys1; read-out: Inhibition vs DMSO
Method: as §1

LOK = LOK (Homo sapiens, UniProt O94804); settings: 100 nM, 2 hours
Method: as §1

MST1 = MST1 (Homo sapiens, UniProt Q13043); settings: 100 nM, 2 hours; Lys1
Method: as §1

[1] = Activation Loop, read-out: Inhibition vs DMSO
[2] = Lys1, read-out: Inhibition vs DMSO
[3] = Lys2, read-out: Inhibition vs DMSO

PI4KB, sequence (Q9UBF8 whole entry): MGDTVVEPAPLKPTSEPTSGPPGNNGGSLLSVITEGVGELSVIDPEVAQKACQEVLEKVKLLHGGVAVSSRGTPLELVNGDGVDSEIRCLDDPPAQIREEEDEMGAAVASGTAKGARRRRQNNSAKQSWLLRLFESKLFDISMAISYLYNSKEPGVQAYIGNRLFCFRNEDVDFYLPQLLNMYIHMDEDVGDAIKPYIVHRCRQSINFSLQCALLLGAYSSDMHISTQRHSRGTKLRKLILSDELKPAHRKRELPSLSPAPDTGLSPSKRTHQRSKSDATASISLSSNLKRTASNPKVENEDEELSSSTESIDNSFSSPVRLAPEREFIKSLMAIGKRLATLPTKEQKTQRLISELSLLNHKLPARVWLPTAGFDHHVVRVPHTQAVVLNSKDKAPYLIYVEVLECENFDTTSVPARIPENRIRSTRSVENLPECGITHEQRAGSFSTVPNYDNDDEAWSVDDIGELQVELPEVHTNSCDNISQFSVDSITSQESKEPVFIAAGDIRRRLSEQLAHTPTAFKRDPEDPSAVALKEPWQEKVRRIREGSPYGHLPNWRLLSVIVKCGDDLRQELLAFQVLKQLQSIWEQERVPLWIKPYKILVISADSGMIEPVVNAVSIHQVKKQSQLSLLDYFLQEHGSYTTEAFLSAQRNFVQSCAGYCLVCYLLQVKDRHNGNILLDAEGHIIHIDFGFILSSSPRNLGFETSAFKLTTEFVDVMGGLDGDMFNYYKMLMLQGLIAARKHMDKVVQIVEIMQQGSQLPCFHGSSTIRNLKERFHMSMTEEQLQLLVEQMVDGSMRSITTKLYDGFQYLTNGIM
FER, sequence (P16591 whole entry): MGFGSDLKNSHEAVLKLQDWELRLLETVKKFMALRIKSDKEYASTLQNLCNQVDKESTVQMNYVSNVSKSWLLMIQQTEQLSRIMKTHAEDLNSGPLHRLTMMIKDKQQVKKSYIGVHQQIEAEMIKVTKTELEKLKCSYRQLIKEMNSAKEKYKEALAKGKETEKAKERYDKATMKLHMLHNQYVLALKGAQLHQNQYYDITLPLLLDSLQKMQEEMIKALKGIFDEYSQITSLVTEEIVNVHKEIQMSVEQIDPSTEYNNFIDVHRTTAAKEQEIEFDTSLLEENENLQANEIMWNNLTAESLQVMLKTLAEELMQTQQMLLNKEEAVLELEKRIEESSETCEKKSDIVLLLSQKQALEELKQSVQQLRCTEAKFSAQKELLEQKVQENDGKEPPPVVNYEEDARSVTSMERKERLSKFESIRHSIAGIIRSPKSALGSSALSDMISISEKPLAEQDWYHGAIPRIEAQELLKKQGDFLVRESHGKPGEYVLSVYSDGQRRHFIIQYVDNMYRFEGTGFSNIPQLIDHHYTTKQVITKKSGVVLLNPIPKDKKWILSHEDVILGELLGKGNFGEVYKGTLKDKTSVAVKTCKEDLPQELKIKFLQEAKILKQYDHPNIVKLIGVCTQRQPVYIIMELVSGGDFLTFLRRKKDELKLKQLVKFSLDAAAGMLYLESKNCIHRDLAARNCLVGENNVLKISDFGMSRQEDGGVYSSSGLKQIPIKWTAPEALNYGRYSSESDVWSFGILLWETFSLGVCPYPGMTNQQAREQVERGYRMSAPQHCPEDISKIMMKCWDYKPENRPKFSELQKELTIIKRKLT
T3 sequence (P51812 whole entry, the tested form may be a part): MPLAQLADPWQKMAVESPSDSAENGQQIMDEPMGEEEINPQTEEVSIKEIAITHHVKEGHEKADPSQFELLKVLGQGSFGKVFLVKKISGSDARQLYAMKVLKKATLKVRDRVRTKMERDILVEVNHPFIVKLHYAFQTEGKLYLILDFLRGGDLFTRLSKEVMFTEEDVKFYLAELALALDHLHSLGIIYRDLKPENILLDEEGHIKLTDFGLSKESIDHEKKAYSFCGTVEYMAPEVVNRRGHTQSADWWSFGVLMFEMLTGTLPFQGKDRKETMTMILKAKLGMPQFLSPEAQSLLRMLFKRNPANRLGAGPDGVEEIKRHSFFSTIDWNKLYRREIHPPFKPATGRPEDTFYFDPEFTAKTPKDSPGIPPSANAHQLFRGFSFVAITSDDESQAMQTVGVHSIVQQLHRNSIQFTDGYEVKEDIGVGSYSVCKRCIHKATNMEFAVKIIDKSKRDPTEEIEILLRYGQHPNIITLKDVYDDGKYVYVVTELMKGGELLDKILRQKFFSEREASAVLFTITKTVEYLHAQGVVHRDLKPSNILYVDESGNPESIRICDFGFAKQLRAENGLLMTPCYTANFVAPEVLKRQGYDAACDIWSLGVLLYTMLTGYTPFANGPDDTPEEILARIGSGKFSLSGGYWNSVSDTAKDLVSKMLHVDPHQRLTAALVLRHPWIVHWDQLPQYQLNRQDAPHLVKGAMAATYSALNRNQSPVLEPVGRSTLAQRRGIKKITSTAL
LOK, sequence (O94804 whole entry): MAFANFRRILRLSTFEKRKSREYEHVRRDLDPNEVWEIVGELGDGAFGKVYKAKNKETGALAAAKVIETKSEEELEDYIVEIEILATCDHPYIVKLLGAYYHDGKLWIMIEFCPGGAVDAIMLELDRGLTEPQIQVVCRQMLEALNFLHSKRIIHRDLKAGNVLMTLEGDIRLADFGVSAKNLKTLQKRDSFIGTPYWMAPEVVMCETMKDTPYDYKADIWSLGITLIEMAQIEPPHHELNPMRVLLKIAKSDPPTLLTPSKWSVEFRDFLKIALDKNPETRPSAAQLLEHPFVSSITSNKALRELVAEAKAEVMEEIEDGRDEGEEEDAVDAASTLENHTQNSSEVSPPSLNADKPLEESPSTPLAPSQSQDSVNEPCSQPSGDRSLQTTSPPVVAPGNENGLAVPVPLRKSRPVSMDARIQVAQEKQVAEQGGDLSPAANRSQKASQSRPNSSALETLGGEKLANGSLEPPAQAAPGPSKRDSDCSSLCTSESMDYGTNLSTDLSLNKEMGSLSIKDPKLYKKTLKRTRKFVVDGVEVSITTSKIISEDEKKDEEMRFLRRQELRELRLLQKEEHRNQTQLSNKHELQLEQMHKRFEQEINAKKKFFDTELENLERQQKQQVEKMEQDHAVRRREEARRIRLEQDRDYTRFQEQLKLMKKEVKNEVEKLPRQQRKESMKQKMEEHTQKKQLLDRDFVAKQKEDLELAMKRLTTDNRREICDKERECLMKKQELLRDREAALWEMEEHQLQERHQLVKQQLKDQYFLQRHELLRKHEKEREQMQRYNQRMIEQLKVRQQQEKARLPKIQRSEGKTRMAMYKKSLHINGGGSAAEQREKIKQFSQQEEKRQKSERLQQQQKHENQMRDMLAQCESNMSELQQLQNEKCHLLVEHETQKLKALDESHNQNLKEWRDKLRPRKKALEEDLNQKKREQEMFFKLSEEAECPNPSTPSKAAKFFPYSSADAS
IRAK1, sequence (P51617 whole entry): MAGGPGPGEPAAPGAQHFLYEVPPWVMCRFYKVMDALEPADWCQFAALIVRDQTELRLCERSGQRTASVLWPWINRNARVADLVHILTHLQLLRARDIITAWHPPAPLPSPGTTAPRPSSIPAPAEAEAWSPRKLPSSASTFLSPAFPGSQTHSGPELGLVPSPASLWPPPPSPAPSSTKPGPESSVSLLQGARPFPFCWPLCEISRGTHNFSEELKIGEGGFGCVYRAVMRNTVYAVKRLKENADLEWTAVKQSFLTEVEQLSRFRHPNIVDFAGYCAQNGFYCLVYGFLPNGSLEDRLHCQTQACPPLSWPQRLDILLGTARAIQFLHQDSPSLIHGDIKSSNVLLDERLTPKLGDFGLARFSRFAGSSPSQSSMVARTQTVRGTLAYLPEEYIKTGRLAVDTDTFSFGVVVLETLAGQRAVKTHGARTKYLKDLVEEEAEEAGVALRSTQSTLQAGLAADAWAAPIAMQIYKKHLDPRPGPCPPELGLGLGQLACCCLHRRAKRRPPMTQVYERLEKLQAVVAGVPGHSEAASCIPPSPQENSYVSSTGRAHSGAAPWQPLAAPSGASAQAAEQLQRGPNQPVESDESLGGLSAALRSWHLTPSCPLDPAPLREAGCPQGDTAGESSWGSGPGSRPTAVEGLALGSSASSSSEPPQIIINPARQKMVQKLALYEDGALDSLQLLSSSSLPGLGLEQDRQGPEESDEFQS
CDK4, sequence (P11802 2-303 limits assumed): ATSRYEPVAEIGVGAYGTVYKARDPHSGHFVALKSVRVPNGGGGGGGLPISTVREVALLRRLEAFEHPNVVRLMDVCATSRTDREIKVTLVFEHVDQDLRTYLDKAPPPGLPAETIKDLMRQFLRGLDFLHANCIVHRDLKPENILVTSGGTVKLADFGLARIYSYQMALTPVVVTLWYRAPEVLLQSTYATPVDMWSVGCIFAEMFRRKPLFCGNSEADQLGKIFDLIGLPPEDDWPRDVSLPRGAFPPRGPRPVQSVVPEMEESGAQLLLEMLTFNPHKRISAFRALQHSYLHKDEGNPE
CaMK1d, sequence (Q8IU85 whole entry): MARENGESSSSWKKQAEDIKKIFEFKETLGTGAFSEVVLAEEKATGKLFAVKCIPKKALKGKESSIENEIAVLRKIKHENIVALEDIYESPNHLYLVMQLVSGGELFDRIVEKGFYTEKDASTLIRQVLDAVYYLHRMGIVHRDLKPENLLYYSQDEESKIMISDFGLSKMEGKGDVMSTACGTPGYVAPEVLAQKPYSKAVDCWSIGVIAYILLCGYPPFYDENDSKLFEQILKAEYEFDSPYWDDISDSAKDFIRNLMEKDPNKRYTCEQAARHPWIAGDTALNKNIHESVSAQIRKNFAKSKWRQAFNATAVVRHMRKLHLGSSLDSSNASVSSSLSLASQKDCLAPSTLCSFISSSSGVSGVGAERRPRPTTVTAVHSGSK

CN1CCN(Cc2ccc(Nc3ncc(Cl)c(Nc4ccccc4S(=O)(=O)N(C)C)n3)cc2)CC1 [TP-0903]
inhibition at 0.1 µM (AurB): 60.1% | inhibition at 0.1 µM (NEK9; [1]): 45.7% | inhibition at 0.1 µM (NEK9; [2]): 48% | inhibition at 0.1 µM (NEK9; [3]): 48.8% | Inhibition vs DMSO (MAP2K7): -0.0231% | inhibition at 0.1 µM (BARK1): -13.9% | inhibition at 0.1 µM (MLK4): -13.5% | inhibition at 0.1 µM (MAP2K3; [1]): -10.9% | inhibition at 0.1 µM (MAP2K3; [2]): 3.4% | inhibition at 0.1 µM (MAP2K3; [3]): 8.2% | inhibition at 0.1 µM (GSK3B): -11.3% | inhibition at 0.1 µM (PCTAIRE1): 69.6% | inhibition at 0.1 µM (MAP3K2): -7.5% | Inhibition vs DMSO (MAP4K3): 45.4% | inhibition at 0.1 µM (CDK4): 9.8% | inhibition at 0.1 µM (IRAK1): 43.3% | inhibition at 0.1 µM (FER; [1]): 43.4% | inhibition at 0.1 µM (FER; [2]): 19.2% | inhibition at 0.1 µM (RSK2 domain1; [1]): 22.7% | inhibition at 0.1 µM (RSK2 domain1; [3]): -0.9% | inhibition at 0.1 µM (PKN1): -25.2% | inhibition at 0.1 µM (CaMK1d): 23.2% | inhibition at 0.1 µM (PI4KB; LLSVIVKCGDDLRQELLAFQVLK): -5.9% | inhibition at 0.1 µM (PI4KB; VPHTQAVVLNSKDK): -12.3% | inhibition at 0.1 µM (DGKH): -1.3% | inhibition at 0.1 µM (TBK1): 82.3% | Inhibition vs DMSO (LOK; Lys1): 56.8% | Inhibition vs DMSO (LOK; Lys2): 82.8% | Inhibition vs DMSO (MST1): 42.4%
